Test results: patent publication US20030104945A1, “2,4-Diamino-1,3,5-triazines, their preparation, and their use as herbicides and plant growth regulators” (priority 2001, published 2003)

What was measured:
Type in all cases: in vivo
[1] = system: harmful plants such as Sinapis alba, Echinochloa crus-galli, Lolium multiflorum, Stellaria media, Cyperus iria, Amaranthus retroflexus, Setaria viridus and …; assay: Post-emergence herbicidal action (greenhouse pot test); conditions: three-leaf stage, application rate of 1 kg and less of active substance per hectare, scored after approx. 3 to 4 weeks vs untreated controls
Protocol: Seeds or rhizome sections of monocotyledonous and dicotyledonous weeds are placed in sandy loam soil in plastic pots, covered with soil and grown in the greenhouse under good growth conditions. Three weeks after sowing, the experimental plants are treated at the three-leaf stage. The compounds according to the invention, which are formulated as wettable powders or as emulsion concentrates, are sprayed at various rates onto the green plant organs at an application rate of 600 to 800 l of water per ha (converted). After the experimental plants have remained in the greenhouse for approx. 3 to 4 weeks under optimal growth conditions, the effect of the compositions is scored visually in comparison with untreated controls. The substances according to the invention also have a good herbicidal action against a broad spectrum of economically important grass weeds and broad-leaved weeds when applied post-emergence.

[2] = system: harmful plants such as Stellaria media, Lolium multiflorum, Amaranthus retroflexus, Sinapis alba, Avena sativa and Setaria viridis; assay: Pre-emergence herbicidal action (greenhouse pot test); conditions: application rate of 1 kg or less active substance per hectare, scored after 3 to 4 weeks vs untreated controls
From the text: Seeds and rhizome sections of monocotyledonous and dicotyledonous harmful plants are placed in sandy loam in plastic pots and covered with soil. The compounds according to the invention which are formulated in the form of wettable powders or emulsion concentrates at various rates, are then applied to the surface of the covering soil as aqueous suspension or emulsion at an application rate of 600 to 800 l of water per ha (converted).
After the treatment, the pots are placed in the greenhouse and kept under good growth conditions for the weeds. Visual scoring of the plant damage or the adverse effect on emergence is done after the test plants have emerged after an experimental period of 3 to 4 weeks in comparison with untreated controls.

[3] = system: harmful plants which are typical of rice crops such as, for example, Cyperus monti, Echinochloa crus-galli and Sagittaria pygmaea; assay: Activity against harmful plants in rice (paddy rice conditions); conditions: poured into paddy water at various dosages; scored about three weeks after application vs untreated controls; note: test concentration or dose not given here
Protocol: Transplanted and seeded rice and typical grass weeds and broad-leaved weeds in rice crops are grown in the greenhouse under paddy rice conditions (depth of the paddy water: 2-3 cm) in sealed plastic pots until they have reached the three-leaf stage (Echinochloa crus-galli 1.5-leaf). They are then treated with the compounds according to the invention. To this end, the formulated active substances are suspended, dissolved or emulsified in water and the product is poured into the paddy water of the test plants at various dosages. After the treatment has been carried out thus, the test plants are placed in the greenhouse under optimal growth conditions and kept like this over the entire experimental period.
About three weeks after application, the evaluation is carried out by is of visually scoring the plant damage in comparison with untreated controls.

CC(Nc1nc(N)nc(C(C)(C)F)n1)[C@@H]1C[C@H]1c1ccccc1 (relative stereo) [Example 1-1]
very good herbicidal activity: herbicidal activity, visual scoring [1] | herbicidal activity, visual scoring of plant damage or adverse effect on emergence [2] | herbicidal activity, visual scoring of plant damage [3]

CC(F)c1nc(N)nc(NC(C)[C@@H]2C[C@H]2c2ccccc2)n1 (relative stereo) [Example 1-2, 2-Amino-4-(1-fluoroethyl)-6-[1-(trans-2-phenylcyclopropyl)-1-ethylamino]-1,3,5-triazine]
very good herbicidal activity: herbicidal activity, visual scoring [1] | herbicidal activity, visual scoring of plant damage or adverse effect on emergence [2] | herbicidal activity, visual scoring of plant damage [3]

CCC(F)c1nc(N)nc(NC(C)[C@@H]2C[C@H]2c2ccccc2)n1 (relative stereo) [Example 1-3]
very good herbicidal activity: herbicidal activity, visual scoring [1] | herbicidal activity, visual scoring of plant damage or adverse effect on emergence [2] | herbicidal activity, visual scoring of plant damage [3]

CC(C)c1nc(N)nc(NC(C)[C@@H]2C[C@H]2c2ccccc2)n1 (relative stereo) [Example 1-4]
very good herbicidal activity: herbicidal activity, visual scoring [1] | herbicidal activity, visual scoring of plant damage or adverse effect on emergence [2] | herbicidal activity, visual scoring of plant damage [3]

CCc1nc(N)nc(NC(C)[C@@H]2C[C@H]2c2ccccc2)n1 (relative stereo) [Example 1-6]
very good herbicidal activity: herbicidal activity, visual scoring [1] | herbicidal activity, visual scoring of plant damage or adverse effect on emergence [2] | herbicidal activity, visual scoring of plant damage [3]

CCC(Nc1nc(N)nc(C(C)(C)F)n1)[C@@H]1C[C@H]1c1ccccc1 (relative stereo) [Example 2-1, 2-Amino-4-(1-fluoro-1-methylethyl)-6-[1-(trans-2-phenylcyclopropyl)prop-1-ylamino]-1,3,5-triazine]
very good herbicidal activity: herbicidal activity, visual scoring [1] | herbicidal activity, visual scoring of plant damage or adverse effect on emergence [2] | herbicidal activity, visual scoring of plant damage [3]

CCC(Nc1nc(N)nc(C(C)C)n1)[C@@H]1C[C@H]1c1ccccc1 (relative stereo) [Example 2-2]
very good herbicidal activity: herbicidal activity, visual scoring [1] | herbicidal activity, visual scoring of plant damage or adverse effect on emergence [2] | herbicidal activity, visual scoring of plant damage [3]

CCC(Nc1nc(N)nc(C(C)F)n1)[C@@H]1C[C@H]1c1ccccc1 (relative stereo) [Example 2-3]
very good herbicidal activity: herbicidal activity, visual scoring [1] | herbicidal activity, visual scoring of plant damage or adverse effect on emergence [2] | herbicidal activity, visual scoring of plant damage [3]

CCC(F)c1nc(N)nc(NC(CC)[C@@H]2C[C@H]2c2ccccc2)n1 (relative stereo) [Example 2-8]
very good herbicidal activity: herbicidal activity, visual scoring [1] | herbicidal activity, visual scoring of plant damage or adverse effect on emergence [2] | herbicidal activity, visual scoring of plant damage [3]

CC(C)(F)c1nc(N)nc(NC(C2CC2)[C@@H]2C[C@H]2c2ccccc2)n1 (relative stereo) [Example 3-1]
very good herbicidal activity: herbicidal activity, visual scoring [1] | herbicidal activity, visual scoring of plant damage or adverse effect on emergence [2] | herbicidal activity, visual scoring of plant damage [3]

CC(C)c1nc(N)nc(NC(C2CC2)[C@@H]2C[C@H]2c2ccccc2)n1 (relative stereo) [Example 3-2]
very good herbicidal activity: herbicidal activity, visual scoring [1] | herbicidal activity, visual scoring of plant damage or adverse effect on emergence [2] | herbicidal activity, visual scoring of plant damage [3]

CC(F)c1nc(N)nc(NC(C2CC2)[C@@H]2C[C@H]2c2ccccc2)n1 (relative stereo) [Example 3-3]
very good herbicidal activity: herbicidal activity, visual scoring [1] | herbicidal activity, visual scoring of plant damage or adverse effect on emergence [2] | herbicidal activity, visual scoring of plant damage [3]

CCC(F)c1nc(N)nc(NC(C2CC2)[C@@H]2C[C@H]2c2ccccc2)n1 (relative stereo) [Example 3-4]
very good herbicidal activity: herbicidal activity, visual scoring [1] | herbicidal activity, visual scoring of plant damage or adverse effect on emergence [2] | herbicidal activity, visual scoring of plant damage [3]

CC(F)c1nc(N)nc(NC(C2CC2)[C@@H]2C[C@H]2c2cc(Cl)cc(Cl)c2)n1 (relative stereo) [Example 3-26]
very good herbicidal activity: herbicidal activity, visual scoring [1] | herbicidal activity, visual scoring of plant damage or adverse effect on emergence [2] | herbicidal activity, visual scoring of plant damage [3]

CCC(F)c1nc(N)nc(NC(C2CC2)[C@@H]2C[C@H]2c2cc(Cl)cc(Cl)c2)n1 (relative stereo) [Example 3-27]
very good herbicidal activity: herbicidal activity, visual scoring [1] | herbicidal activity, visual scoring of plant damage or adverse effect on emergence [2] | herbicidal activity, visual scoring of plant damage [3]

CC(C)c1nc(N)nc(NC(C2CC2)[C@@H]2C[C@H]2c2cc(Cl)cc(Cl)c2)n1 (relative stereo) [Example 3-28]
very good herbicidal activity: herbicidal activity, visual scoring [1] | herbicidal activity, visual scoring of plant damage or adverse effect on emergence [2] | herbicidal activity, visual scoring of plant damage [3]

CC(C)(F)c1nc(N)nc(NC(C2CCC2)[C@@H]2C[C@H]2c2ccccc2)n1 (relative stereo) [Example 4-1]
very good herbicidal activity: herbicidal activity, visual scoring [1] | herbicidal activity, visual scoring of plant damage or adverse effect on emergence [2] | herbicidal activity, visual scoring of plant damage [3]

CCC(F)(CC)c1nc(N)nc(NC(C2CCC2)[C@@H]2C[C@H]2c2ccccc2)n1 (relative stereo) [Example 4-2]
very good herbicidal activity: herbicidal activity, visual scoring [1] | herbicidal activity, visual scoring of plant damage or adverse effect on emergence [2] | herbicidal activity, visual scoring of plant damage [3]

CC(F)c1nc(N)nc(NC(C2CCC2)[C@@H]2C[C@H]2c2ccccc2)n1 (relative stereo) [Example 4-3]
very good herbicidal activity: herbicidal activity, visual scoring [1] | herbicidal activity, visual scoring of plant damage or adverse effect on emergence [2] | herbicidal activity, visual scoring of plant damage [3]

CCC(F)c1nc(N)nc(NC(C2CCC2)[C@@H]2C[C@H]2c2ccccc2)n1 (relative stereo) [Example 4-4]
very good herbicidal activity: herbicidal activity, visual scoring [1] | herbicidal activity, visual scoring of plant damage or adverse effect on emergence [2] | herbicidal activity, visual scoring of plant damage [3]

CC(C)c1nc(N)nc(NC(C2CCC2)[C@@H]2C[C@H]2c2ccccc2)n1 (relative stereo) [Example 4-27]
very good herbicidal activity: herbicidal activity, visual scoring [1] | herbicidal activity, visual scoring of plant damage or adverse effect on emergence [2] | herbicidal activity, visual scoring of plant damage [3]

CC(C)(F)c1nc(N)nc(NC(C2CCC2)[C@@H]2C[C@H]2c2cccc(Cl)c2)n1 (relative stereo) [Example 4-28]
very good herbicidal activity: herbicidal activity, visual scoring [1] | herbicidal activity, visual scoring of plant damage or adverse effect on emergence [2] | herbicidal activity, visual scoring of plant damage [3]
